Active and inactive are the calls of the source.
Experiments:
[1] = OVCAR-3 cell viability loss – plate reader, dry powder samples, PAX8 inhibitor project, dose response (AID 743044); type: functional, cell-based
[2] = toxicity toward immortalized ovarian surface epithelium – cell-based, plate reader, dry powder samples, cytotoxicity control for PAX8 inhibitor project, dose response (AID 743045); type: functional
[3] = OVCAR8 cell viability loss – plate reader, dry powder samples, PAX8 project, dose response (AID 743197); type: functional, cell-based; conditions: OVCAR-8
Paired box protein Pax-8 = Paired box protein Pax-8 (Homo sapiens, UniProt Q06710); assay: PAX8 transcriptional activity inhibition in RMG-I – RMG-I cells, luciferase, cherry-pick, dose response (AID 687027); type: functional, cell-based;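 note: luciferase reporter driven by Pax8 target thyroperoxidase promoter measured by SteadyGlo luminescence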
Chain of Paired box protein Pax-8 (Q06710 whole entry): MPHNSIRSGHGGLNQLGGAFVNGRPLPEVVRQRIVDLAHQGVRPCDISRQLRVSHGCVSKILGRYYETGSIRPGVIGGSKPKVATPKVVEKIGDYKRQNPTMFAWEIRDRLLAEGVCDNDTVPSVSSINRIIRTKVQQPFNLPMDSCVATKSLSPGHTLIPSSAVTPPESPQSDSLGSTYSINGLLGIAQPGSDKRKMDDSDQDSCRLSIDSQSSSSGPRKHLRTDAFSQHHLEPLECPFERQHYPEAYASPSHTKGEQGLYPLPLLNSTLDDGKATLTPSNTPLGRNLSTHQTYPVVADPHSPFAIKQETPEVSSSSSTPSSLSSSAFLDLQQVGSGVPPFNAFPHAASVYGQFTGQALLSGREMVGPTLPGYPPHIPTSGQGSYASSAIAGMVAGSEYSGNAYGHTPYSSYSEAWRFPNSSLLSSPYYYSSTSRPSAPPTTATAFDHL

[4] = A2780 cell killing – plate reader, dry powder samples, cytotoxicity control, dose response (AID 743046); type: functional, cell-based
[5] = COV434 cell viability loss – plate reader, dry powder, SA7, cytotoxicity control for PAX8 inhibitor project, dose response (AID 743145); type: functional, cell-based
[6] = OVCAR4 cell viability loss – plate reader, dry powder, SA11, cytotoxicity control for PAX8 inhibitor project, dose response (AID 743150); type: functional, cell-based; conditions: OVCAR-4
[7] = PAX8-dependent cell viability loss – plate reader, dry powder, dose response (AID 743049); type: functional, cell-based
[8] = inhibitors acting on PAX2 in cells – cell-based, plate reader, dry powder samples, selectivity assay for PAX8 inhibitor project, dose response (AID 743048); type: functional;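 note: HEK293 cells carrying a WT1 promoter luciferase reporter driven by expressed Pax2; potency is for inhibition of Pax2 driven reporter signal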
[9] = PAX5 cellular inhibition readout – cell-based, plate reader, dry powder samples, selectivity assay for PAX8 inhibitor project, dose response (AID 743047); type: functional;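 note: HEK293 cells carrying a Pax5 driven CD19 promoter luciferase reporter; potency of inhibitors that lower reporter luminescence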
[10] = OV-90 cell viability loss – plate reader, dry powder, SA8, PAX8 inhibitor project, dose response (AID 743149); type: functional, cell-based
[11] = Late stage assay provider results from the probe development effort to identify inhibitors of the Plasmodium falciparum M18 Aspartyl Aminopeptidase (M18AAP): radiolabel-based cell-based dose response assay to identify compounds that inhibit P. falciparum growth in RBCs, Set 2..; type: functional
[12] = P. falciparum Dd2 growth inhibitors, dose response, SYBR Green, cherry-picked samples (AID 1159567); type: functional, cell-based
[13] = Dd2 malaria parasite growth inhibition potency – SYBR Green, dry powder samples, dose response (AID 1159566); type: functional, cell-based;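 note: potency for growth inhibition with lower SYBR green DNA signal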
[14] = growth inhibition of PfATP4-mutant resistant parasites – NITD609-resistant line, SYBR Green, dry powder, dose response (AID 1159571); type: functional, cell-based;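 note: parasites synchronized at ring stage by sorbitol before testing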
[15] = growth inhibition of yeast DHODH-expressing 3D7 parasites – SYBR Green, dry powder samples, dose response (AID 1159570); type: functional, cell-based;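 note: parasite growth measured after 72 hours of compound exposure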
[16] = Dd2 parasite growth inhibition in erythrocytes – SYBR Green, dry powder samples, set 9, dose response (AID 1159568); type: functional, cell-based
[17] = toxicity to human hepatoma HepG2 cells – cell-based, cherry-picked samples, cytotoxicity control, dose response (AID 1159577); type: functional
[18] = SNU-C1 cell viability reduction, dose response, CellTiter-Glo luminescence (AID 1117323); type: functional, cell-based
[19] = Reduced DLD-1 viability, concentration-response, CellTiter-Glo luminescence (AID 1117352); type: functional
[20] = cytotoxicity toward HCT116 cells – cell-based, CellTiter-Glo luminescence, IC50, dose response (AID 1117332); type: functional; conditions: HCT-116
[21] = rise of 2N DNA cells, HeLa – IC50, dose response (AID 1117349); type: functional, cell-based
[22] = cytotoxicity toward Colo320 cells – cell-based, CellTiter-Glo luminescence, IC50, dose response (AID 1117334); type: functional; conditions: COLO 320
[23] = rise of 4N DNA cells, HeLa – IC50, dose response (AID 1117351); type: functional, cell-based
[24] = HCT116 cell viability decrease, GSK3B pretreatment – CellTiter-Glo, IC50, dose response (AID 1117339); type: functional; conditions: HCT-116
[25] = CellTiter-Glo luminescence survival assay, SW480 colon tumor line, concentration-response curve, half-maximal inhibitory concentration (AID 1117338); type: functional
[26] = RKO cell viability reduction, dose response, CellTiter-Glo luminescence (AID 1117322); type: functional
[27] = cytotoxicity toward HT-29 cells – cell-based, CellTiter-Glo luminescence, IC50, dose response (AID 1117330); type: functional

## C[C@H]1CCCCO[C@@H](CN(C)Cc2ccc(C(F)(F)F)cc2)[C@@H](C)CN([C@@H](C)CO)C(=O)c2cc(NS(=O)(=O)c3ccc(Cl)cc3)ccc2O1
[1]
  AC50: 11 µM (active)
[2]
  AC50: 36.4 µM (active)
[3]
  AC50: 19.7 µM (active)
Paired box protein Pax-8
  AC50: 4.39 µM (active)
[4]
  AC50: 0.528 µM (active)

## N#C[C@@H]1[C@H](c2ccc(C#CC3CCCCC3)cc2)[C@H](CO)N1S(=O)(=O)c1ccccc1
[5]
  AC50: 36.6 µM (active)
[6]
  AC50: > 70 µM (inactive)
[7]
  AC50: 25.6 µM (active)
[8]
  AC50: > 32 µM (inactive)
Paired box protein Pax-8
  AC50: 11.1 µM (active)
[9]
  AC50: 29.9 µM (active)
[10]
  AC50: 22.2 µM (active)

## CCOc1ccc2nccc(NCCc3ccc(OC)c(OC)c3)c2c1
[11]
  IC50: 1.4 µM (active)

## Oc1ccc(CCNc2ccnc3cc(Cl)ccc23)cc1O
[11]
  IC50: 0.62 µM (active)

## O=C(c1ccccc1F)N1CC(=O)N2[C@H](C1)[C@@H](c1ccc(-c3ccc(F)cc3)cc1)[C@@H]2CO
[12]
  AC50: 1.41 µM (active)
[13]
  AC50: 0.497 µM (active)
[14]
  AC50: 1.09 µM (active)
[15]
  AC50: 1.72 µM (active)

## COc1ccc(S(=O)(=O)Nc2ccc3c(c2)C(=O)N([C@H](C)CO)C[C@@H](C)[C@H](CN(C)Cc2ccc(C(F)(F)F)cc2)OCCCC[C@@H](C)O3)cc1
[16]
  AC50: 3.69 µM (active)

## C[C@@H]1CN([C@@H](C)CO)S(=O)(=O)c2ccc(/C=C/c3ccccc3)cc2O[C@@H]1CN(C)C(=O)Nc1ccc(F)cc1
[17]
  AC50: 25.5 µM (active)
[12]
  AC50: 5.09 µM (active)

## C[C@H]1CCCCO[C@H](CN(C)S(=O)(=O)c2ccc(F)cc2)[C@@H](C)CN([C@@H](C)CO)C(=O)c2cc(N(C)C)ccc2O1
[16]
  AC50: 4.91 µM (active)

## CCCc1cn(CC[C@H]2CC[C@@H](NS(=O)(=O)c3ccc(-c4ccccc4)cc3)[C@H](CO)O2)nn1
[17]
  AC50: 14.8 µM (active)
[12]
  AC50: 1.31 µM (active)

## CC[C@H]1CN2CCc3cc(OC)c(OC)cc3[C@@H]2C[C@@H]1C[C@H]1NCCc2cc(OC)c(OC)cc21 [EMETINE]
[18]
  IC50: 0.00228 µM (active)
[19]
  IC50: 0.0116 µM (active)
[20]
  IC50: 0.0615 µM (active)
[21]
  IC50: > 10 µM (inactive)
[22]
  IC50: 0.0221 µM (active)
[23]
  IC50: > 10 µM (inactive)
[24]
  IC50: 0.001 µM (active)
[25]
  IC50: 0.001 µM (active)
[26]
  IC50: 0.00831 µM (active)
[27]
  IC50: 0.0163 µM (active)

From ChEMBL document CHEMBL1201862, “PubChem BioAssay data set” (2004)
